Patent US10617672B2, “Liposome composition co-encapsulating doxorubicin and a prodrug of mitomycin C” (LIPOMEDIX PHARMACEUTICALS LTD., priority 2015, dated 2020)
Read-outs that look alike come from different tables or passages of the source.

Assays:
[1] = system: IGrov-1 ovarian carcinoma cells; test: In vitro cytotoxicity, methylene blue staining, 72 h; assay type: cell-based, human; settings: IGrov-1 cells, 72 hours at 37° C.
Protocol: (§1) For comparison, liposomes with entrapped doxorubicin with ammonium sulfate gradient and a coating of polyethyleneglycol (PEG) (available under the tradename DOXIL®), liposomes with the mitomycin C prodrug conjugate incorporated into the lipid bilayer and a coating of PEG (sometimes referred to in the literature by the tradename PROMITIL®) were also evaluated in the cell lines, along with free doxorubicin and liposomes with encapsulated doxorubicin with ammonium alendronate gradient and a coating of PEG (U.S. 2014/0328899, incorporated by reference herein).
(§2) In the cytotoxicity assay, cells were seeded in 96-multiwell plates. After overnight incubation, the drugs or liposome compositions were added at various concentrations and cells were incubated further for a total exposure of 72 hrs. Cell growth was evaluated colorimetrically with methylene blue staining and growth rates and IC50 values were calculated as known in the literature.

[2] = system: N-87 gastric carcinoma cells; test: as above; assay type: cell-based, human; settings: N-87 cells, 72 hours at 37° C.
Protocol: as §1, §2

[3] = system: T24 bladder cancer carcinoma cells; test: as above; assay type: cell-based, human; settings: 72 hours at 37° C.
Protocol: as §1, §2

[4] = system: NCI/ADR cells; test: as above; assay type: cell-based; settings: 72 hours at 37° C.
Protocol: as §1, §2

[5] = system: multidrug resistant M109R lung carcinoma cells; test: as above; assay type: cell-based; settings: 72 hours at 37° C.
Protocol: as §1, §2

[6] = system: T-24 bladder cancer cells; test: Cell uptake of doxorubicin and mitomycin C prodrug conjugate; assay type: cell-based, human; settings: T-24 cells, 3 hours of incubation; doxorubicin 6.5 μmoles/L (3.7 μg/mL), MLP 5 μmoles/L (5.7 μg/mL)
Protocol: In brief, the liposomal compositions or free doxorubicin were incubated for 3 hours with the cell lines at a doxorubicin concentration of 6.5 μmoles/L (3.7 μg/mL) and final mitomycin C lipid prodrug conjugate concentration of 5 μmoles/L (5.7 μg/mL).
Cell uptake studies were done as follows. 1×10^6 cells were incubated for 3 hours with the various test agents at a doxorubicin concentration of 6.5 μmoles/mL (3.7 μg/mL) and final mitomycin C lipid prodrug conjugate concentration of 5 μmoles/mL (5.7 μg/mL) and a phospholipid concentration similar to that of liposomes with entrapped doxorubicin (40 nanomoles/mL).

[7] = system: 4T1 breast tumor; test: Antitumor activity in mouse 4T1 breast tumor model; assay type: in vivo; settings: BALB/c mice, single i.v. dose eight days after inoculation
Protocol: BALB/c mice were inoculated intravenously with 100,000 cells 4T1 breast cancer cells to produce tumors. Three were approximately eight tumor-bearing mice in each of the treatment groups.
Eight days after inoculation, the test formulations were administered intravenously.

[8] = as mitomycin C concentration, read-out: IC50 of Mitomycin C
[9] = as doxorubicin concentration, read-out: IC50 of doxorubicin

Row | SMILES | IC50 [1, 8] | IC50 [2, 8] | IC50 [3, 8] | IC50 [4, 8] | IC50 [5, 8] | Doxorubicin Concentration [6] | IC50 [1, 9] | IC50 [2, 9] | IC50 ([3]; as doxorubicin concentration, read-out: C50 of doxorubicin) | IC50 [4, 9] | IC50 [5, 9] | time after treatment at which tumor approached 5.5 mm [7] | tumor growth (FIG. 15), in words ([7]; doses in Example 7)
1 | CO[C@@]12[C@H](COC(N)=O)C3=C(C(=O)C(C)=C(N)C3=O)N1C[C@@H]1N[C@@H]12 [free mitomycin C, mitomycin C] | 0.7 µM | 0.18 µM | 0.05 µM | 0.4 µM | 0.3 µM | – | – | – | – | – | – | – | –
2 | COc1cccc2c1C(=O)c1c(O)c3c(c(O)c1C2=O)C[C@@](O)(C(=O)CO)C[C@@H]3O[C@H]1C[C@H](N)[C@H](O)[C@H](C)O1 [free doxorubicin, doxorubicin] | – | – | – | – | – | 739 ng/10^6 cells | 1.1 µM | 0.19 µM | 0.1 µM | 2.5 µM | 8.7 µM | 10 days | continued and rapid tumor growth
